# In patent publication US20210267986A1, “THERAPEUTIC REGIMENS FOR TREATMENT OF CANCER USING ERIBULIN AND SELECTIVE CDK4/6 INHIBITOR COMBINATIONS” (G1 Therapeutics, Inc., priority 2018, published 2021):
# What was measured:
# [1] = patients receiving eribulin; cited from earlier work
# MCF7 tumor cells = test: EdU incorporation by flow cytometry in MCF7 tumor-bearing mice, tumor cells; type: in vivo; conditions: single dose IP 100 mg/kg
# Description: (§1) FIG. 2A is a graph depicting the percentage of EdU positive MCF7 tumor cells vs. Edu positive Lin^− bone marrow cells from MCF7 tumor bearing mice treated with Compound 1 at 4, 12, 24, and 48 hours post treatment. MCF7 tumor cells are on the left at each time point while Lin- bone marrow cells are on the right at each time point. FIG. 2B is a graph depicting the percentage of EdU positive MCF7 tumor cells vs. Edu positive Lin^− bone marrow cells from MCF7 tumor bearing mice treated with Compound 1 at 4, 12, 24, and 48 hours post treatment normalized to baseline. MCF7 tumor cells are on the left at each time point while Lin- bone marrow cells are on the right at each time point.
# (§2) MCF7 tumor-bearing mice were treated with a single dose of Compound 1 (IP, 100 mg/kg) or vehicle control. After 4, 12, 24, and 48 hours of treatment, animals were pulsed with 5-ethynyl-2′-deoxyuridine (EdU; IP, 200 […]g). Tumors and femurs from each animal were harvested after 4 hours of EdU dosing and processed to single cell suspensions for detection of EdU+ cells by flow cytometry. HSPC in bone marrow is defined as cell populations negative for lineage markers (Mac-1, Gr-1, Ter119, B220, CD4, CD8). […] Students T tests were completed to compare % EdU+ cells (tumor vs bone marrow) at baseline in panel A ****p≤0.0001.
# [2] = test system: MDA-MB-231 breast cancer xenograft; test: MDA-MB-231 xenograft, weekly Compound 1 30 minutes prior to eribulin, tumor volume; type: in vivo, mice
# Description: The graphs represent mean tumor volume over time. The y-axis is tumor volume measured in cubic millimeters. The x-axis is time measured in days. The dotted line represents dates of weekly treatment. The error bars represent standard error of the mean.
# A highly CDK4/6 dependent breast cancer xenograft model (MDA-MB-231) was employed to determine whether transient CDK4/6 inhibition with Compound 1 would antagonize the intended therapeutic effects. First, MD-MB-231 tumor-bearing mice were treated daily with Compound 1 (IP, 100 mg/kg, n=6-8) for 28 days to confirm the CDK4/6 dependency of the xenograft model. Next, MDA-MB-231 tumor-bearing mice were treated with eribulin (IV, 0.5 mg/kg) with or without Compound 1 (IP, 100 mg/kg) weekly for three weeks, with Compound 1 being given 30 minutes prior to chemotherapy treatment. In all experiments, tumors were measured, and tumor volume was calculated twice weekly. […] Therefore, Compound 1 can be administered to preserve hematopoietic stem and progenitor cell (HSPC) and immune system function during eribulin therapy without antagonizing the intended anti-tumor efficacy of eribulin.
# [3] = test system: lineage negative (Lin−) bone marrow cells (HSPC); test: EdU incorporation by flow cytometry in MCF7 tumor-bearing mice, bone marrow; type: in vivo; conditions: single dose IP 100 mg/kg
# Description: as §1, §2
# [4] = test system: MDA-MB-231 breast cancer xenograft; test: MDA-MB-231 xenograft, daily Compound 1 with weekly eribulin, tumor volume; type: in vivo, mice
# Description: The y-axis is tumor volume measured in cubic millimeters. The x-axis is time measured in days. The dotted line represents dates of weekly treatment. The error bars represent standard error of the mean.
# A highly CDK4/6 dependent breast cancer xenograft model (MDA-MB-231) was employed to determine whether continuous CDK4/6 inhibition with Compound 1 would antagonize the intended therapeutic effects of eribulin. First, MDA-MB-231 tumor-bearing mice were treated daily with Compound 1 (IP, 100 mg/kg, n=10) for 28 days to confirm the CDK4/6 dependency of the xenograft model. Next, MDA-MB-231 tumor-bearing mice were treated with eribulin (IV, 0.5 mg/kg, n=10) weekly for three weeks. Next, MDA-MB-231 tumor-bearing mice were treated daily with Compound 1 (IP, 100 mg/kg, n=10) and with eribulin (IV, 0.5 mg/kg, n=10) weekly for three weeks, with Compound 1 being given 30 minutes prior to chemotherapy treatment on days 1, 8, and 15. In all experiments, tumors were measured, and tumor volume was calculated twice weekly. The dosing schedule is shown below in Table 1. […] Therefore, Compound 1 can be administered to preserve hematopoietic stem and progenitor cell (HSPC) and immune system function during eribulin therapy without antagonizing the intended anti-tumor efficacy of eribulin.
# [5] = MCF7 tumor cells, post treatment
# [6] = Lin− bone marrow cells, post treatment
structure (smiles),measurement,setting,value
C=C1C[C@@H]2CC[C@@]34C[C@H]5O[C@H]6[C@@H](O3)[C@H]3O[C@H](CC[C@@H]3O[C@H]6[C@H]5O4)CC(=O)C[C@@H]3[C@@H](OC)[C@@H](C[C@H](O)CN)O[C@H]3C[C@H]3O[C@@H](CC[C@@H]1O2)C[C@@H](C)C3=C [eribulin],incidence of >grade 3 neutropenia,[1],around 57%
"CN1CCN(c2ccc(Nc3ncc4cc5n(c4n3)C3(CCCCC3)CNC5=O)nc2)CC1 [Compound 1, 2′-((5-(4-methylpiperazin-1-yl)pyridin-2-yl)amino)-7′,8′-dihydro-6′H-spiro(cyclohexane-1,9′-pyrazino(1′,2′: 1,5)pyrrolo(2,3-d)pyrimidin)-6′-one]",time of maximal cell cycle inhibition (% EdU+ normalized to baseline),MCF7 tumor cells; [5],24 h
same,time of reentering the cell cycle,MCF7 tumor cells; [5],≤ 48 h
same,cell cycle status of tumor cells after Compound 1,MCF7 tumor cells; S/G2/M,a significant fraction of tumor cells are past the G1 checkpoint
same,effect of Compound 1 on eribulin therapy (tumor volume),"[2]; Compound 1 IP 100 mg/kg 30 minutes prior to eribulin IV 0.5 mg/kg, weekly for three weeks, compared to eribulin alone",no antagonist effect
same,anti-tumor effect of Compound 1 alone,"[2]; IP 100 mg/kg, dosed on a similar schedule as in combination with eribulin (weekly for three weeks)",did not demonstrate any significant anti-tumor effect
same,G1-arrest of hematopoietic stem cells,[3],nearly universal G1-arrest
same,time of maximal cell cycle inhibition (% EdU+ normalized to baseline),[3]; [6],24 h
same,time of reentering the cell cycle,[3]; [6],≤ 48 h
same,effect of continuous Compound 1 on eribulin therapy (tumor volume),"[4]; Compound 1 IP 100 mg/kg daily for 28 days plus eribulin IV 0.5 mg/kg weekly for three weeks, compared to eribulin alone",synergistic effect
same,anti-tumor effect of Compound 1 alone,[4]; IP 100 mg/kg daily for 28 days,did demonstrate a significant anti-tumor effect
